The values below are quoted from earlier work in US20140287011A1, “ARTHROPOD PEST CONTROL COMPOSITION” (SUMITOMO CHEMICAL COMPANY, LIMITED, priority 2011, published 2014).

The conditions of this data set: water at 20° C.

Structures are written as SMILES.

Take `CCOc1cc(C(C)(C)C)ccc1C1COC(c2c(F)cccc2F)=N1` (stereo not shown) [the present oxazole compound, 2-(2,6-difluorophenyl)-4-[4-(1,1-dimethylethyl)-2-ethoxyphenyl]-4,5-dihydrooxazole]: the solubility is listed as 75.4 pg per 1 liter.
